Data from patent US7511074B2, “Tetrafluorobenzyl derivatives and pharmaceutical composition for preventing and treating acute and chronic neurodegenerative diseases in central nervous system containing the same” (AmKor Pharma, Inc., priority 2002, dated 2009).

How the values were obtained:
[1] = tested on: Sprague-dawley rats, four-vessel occlusion; test: CA1 neuronal cell death after transient forebrain ischemia; type: in vivo, rat; conditions: 50 mg/kg ip; 10 min four-vessel occlusion; analyzed 3 d later
Protocol: Adult rats received transient global ischemia for 10 min, with intraperitoneal injections of vehicle (control) or 2-Hydroxy-TTBA (50 mg/kg) at 5 min after reperfusion. The number of degenerating neurons in the CA1 was analyzed 3 d later by counting viable neurons after staining with cresyl violet, mean ±S.E.M. *, Significant difference from the vehicle control, p<0.05 using the independent t-test.
Male adult Sprague-dawley rats (250-300 g) were anesthetized with chloral hydrate and subjected to four-vessel occlusion model (occlusion of both common carotid arteries and vertebral arteries) as previously described [Pulsinelli and Brierley, stroke 10: 267-272 (1979)].
Rats received four-vessel occlusion for 10 min followed by administration of saline (control) or 2-Hydroxy-TTBA (50 mg/kg, ip). Animals were euthanized 3 d later and processed for analysis of neuronal death in the CA1 field after staining with hematoxylin and eosin(mean ±SEM, N=12 rats/condition).

[2] = tested on: Sprague-Dawley rats, occlusion of middle cerebral artery; test: Transient focal cerebral ischemia (60 min MCAO), infarct volume; type: in vivo, rat
Protocol: Adult rats received transient cerebral ischemia by occluding right middle cerebral artery and both common carotid arteries for 60 min with intraperitoneal injections of vehicle or 50 mg/kg 2-Hydroxy-TTBA at 5 min, 30 min, or 1 hr after reperfusion. Infarct volume was analyzed 24 hr later after staining brain slices with 2% 2,3,5-triphenyltetrazolium chloride (TTC), mean ±SEM (n=8-11 rats per each condition). *, Significant difference from the vehicle control, p<0.05 using ANOVA and Student-Neuman-Keuls' test.
Adult rats received transient cerebral ischemia by occluding right middle cerebral artery and both common carotid arteries for 60 min with intraperitoneal injections of vehicle (control) or 50 or 100 mg/kg 2-Hydroxy-TTBA at 5 min after reperfusion. Infarct volume was analyzed 24 hr later after staining brain slices with 2% 2,3,5-triphenyltetrazolium chloride (TTC), mean ±SEM (n=7-8 rats per each condition). *, Significant difference from the vehicle control, p<0.05 using ANOVA and Student-Neuman-Keuls' test.
(§1) Adult rats received transient cerebral ischemia by occluding right middle cerebral artery and both common carotid arteries for 60 min, with intravenous injections of vehicle (control) or 5 mg/kg 2-Hydroxy-TTBA at 30 min after occlusion or 5 min, 30 min, 1 hr, 2 hr, or 4 hr after reperfusion. Infarct volume was analyzed 24 hr later, mean ±SEM (n=8-11 rats per each condition). *, Significant difference from the vehicle control, p<0.05 using ANOVA and Student-Neuman-Keuls' test.
as §1, with “or 1, 2.5, 5, 10 or 20” for “or 5”, “at 5” for “at 30”, “min” for “min after occlusion or 5 min, 30 min, 1 hr, 2 hr, or 4 hr”, “±SEM (n=8-10” for “±SEM (n=8-11”
as §1, with “with oral administrations” for “with intravenous injections”, “or 10 or 20” for “or 5”, “at 5” for “at 30”, “min” for “min after occlusion or 5 min, 30 min, 1 hr, 2 hr, or 4 hr”, “±SEM (n=8-10” for “±SEM (n=8-11”
Sprague-Dawley rats were anesthetized with chloral hydrate, and subjected to focal cerebral ischemia by occlusion of middle cerebral artery (MCAO) as previously described [Tamura et al., J. Cerebr. Blood Flow Metab. 1:53-60 (1981)]. Both common carotid arteries (CCAs) were exposed and right middle cerebral artery (rMCA) was exposed under the surgical microscope by making a 3 mm diameter craniotomy rostral to the foramen ovale. CCAs and rMCA were occluded with microclips. The clips were released 60 min later and restoration of blood flow in rMCA was observed under the microscope
Animals received MCAO for 60 min, alone or with administration of 2-Hydroxy-TTBA (50 mg/kg, i.p.) at indicated points of time after reperfusion. Saline was injected as a control. Animals were euthanized 24 hr later and brains removed and sectioned coronally into seven 2-mm slices in a brain matrix. […] The infarction area, outline in white, was measured (TINA image analysis system) and infarction volume was calculated by summing the infarct volume showing white of sequential 2-mm-thick section, mean ±SEM (n=8-12 rats/condition) (FIG. 8a). […]

[3] = intravenous, 5 min after reperfusion, 60 min MCAO

O=C(O)c1cc(NCc2c(F)c(F)c(C(F)(F)F)c(F)c2F)ccc1O [2-Hydroxy-TTBA, 2-hydroxy-5-(2,3,5,6-tetrafluoro-4-trifluoromethylbenzylamino)benzoic acid]
delayed neuronal cell death in the CA1 areas [1]: prevented delayed neuronal cell death | time after reperfusion up to which delayed injection significantly attenuated infarct volume ([2]; 5 mg/kg intravenous, 60 min MCAO, infarct volume 24 hr later): up to 4 hr | time after reperfusion up to which delayed administration significantly reduced infarct volume ([2]; 50 mg/kg i.p., 60 min MCAO, infarct volume 24 hr later): up to 1 hr | infarct volume after oral administration ([2]; 10 or 20 mg/kg p.o. at 5 min after reperfusion, 24 hr after 60 min MCAO): reduced infarct volume | intravenous doses at which protective effects were observed [2, 3]: higher than 2.5 mg/kg | lowest intravenous dose attenuating infarct volume [2, 3]: ≥ 1 mg/kg
